Results taken from PubChem BioAssay (NCI).
“And” between values parts separate entries of the source, which are not always exact repeats. Identical values can stand only once.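 Following 48 hours of exposure in 96-well plates, responses at five concentrations were used to interpolate endpoints linearly. GI50: concentration for 50% inhibition of growth. At the TGI there is no net growth.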

Experiments:
Experiment in all cases: growth of human tumour cells (NCI), 48 h
[1] = tested on: K-562 leukemia
[2] = tested on: RXF 393 renal
[3] = tested on: UO-31 renal
[4] = tested on: DU-145 prostate
[5] = tested on: SR leukemia
[6] = tested on: OVCAR-3 ovarian
[7] = tested on: SK-MEL-2 melanoma
[8] = tested on: OVCAR-8 ovarian
[9] = tested on: CAKI-1 renal
[10] = tested on: HOP-92 NSCLC

SMILES: Cn1ncc(-c2ccc3c(=O)[nH]nc(CN)c3c2)c1-c1c(F)c(Cl)cc(OC2CC2)c1C#N
- GI50 [1]: 14.5 µM and 14.8 µM
- TGI [1]: 92.1 µM and > 100 µM
- GI50 [2]: 6.22 µM and 2.24 µM
- TGI [2]: 21.4 µM and 12.9 µM
- GI50 [3]: 12.4 µM and 10.3 µM
- TGI [3]: 24.9 µM and 22.1 µM
- GI50 [4]: 16.9 µM and 14.4 µM
- TGI [4]: 32.2 µM and 28.1 µM
- GI50 [5]: 13.1 µM and 12.3 µM
- TGI [5]: 34.8 µM and 41 µM
- GI50 [6]: 15 µM and 12.6 µM
- TGI [6]: 30.6 µM and 26.5 µM
- GI50 [7]: 15.3 µM and 13.6 µM
- TGI [7]: 29.1 µM and 26.8 µM
- GI50 [8]: 13.9 µM and 13.7 µM
- TGI [8]: 27.4 µM and 27.1 µM
- GI50 [9]: 11.6 µM and 11.2 µM
- TGI [9]: 24.1 µM and 23.6 µM
- GI50 [10]: 12.9 µM and 10.1 µM
- TGI [10]: 31.1 µM and 25.5 µM

SMILES: N=C1C(O)C2(I)c3ccccc3N3C(=N)C(O)C4c5ccccc5N1C4C32 (centres undefined)
- TGI [1]: > 100 µM
- TGI [2]: > 100 µM
- TGI [3]: > 100 µM
- TGI [4]: > 100 µM
- TGI [5]: > 100 µM
- TGI [6]: > 100 µM
- TGI [7]: > 100 µM
- TGI [8]: > 100 µM
- TGI [9]: > 100 µM
- TGI [10]: > 100 µM

SMILES: O=C1OCC2=C1C(c1cccc(F)c1)c1cc3c(cc1N2CCO)OCO3 (centres undefined)
- GI50 [1]: 0.353 µM
- TGI [1]: > 50 µM
- GI50 [2]: 1.51 µM
- TGI [2]: 4.96 µM
- GI50 [3]: 2.88 µM
- TGI [3]: > 50 µM
- GI50 [4]: 2.71 µM
- TGI [4]: > 50 µM
- GI50 [5]: 0.294 µM
- TGI [5]: > 50 µM
- GI50 [6]: 1.27 µM
- TGI [6]: > 50 µM
- GI50 [7]: 2.46 µM
- TGI [7]: > 50 µM
- GI50 [8]: 3.18 µM
- TGI [8]: > 50 µM
- GI50 [9]: 1.24 µM
- TGI [9]: > 50 µM
- GI50 [10]: 3.1 µM
- TGI [10]: > 50 µM

SMILES: Nc1ncn([C@@H]2S[C@H](CO)[C@@H](O)[C@@H]2F)c(=O)n1
- GI50 [1]: 1.81 µM
- TGI [1]: > 100 µM
- GI50 [2]: 7.31 µM
- TGI [2]: > 100 µM
- GI50 [3]: 0.372 µM
- TGI [3]: > 100 µM
- GI50 [4]: 0.508 µM
- TGI [4]: > 100 µM
- GI50 [5]: 0.648 µM
- TGI [5]: > 100 µM
- GI50 [6]: > 74 µM
- TGI [6]: > 100 µM
- GI50 [7]: > 100 µM
- TGI [7]: > 100 µM
- GI50 [8]: 0.409 µM
- TGI [8]: > 100 µM
- GI50 [9]: 0.322 µM
- TGI [9]: > 100 µM
- GI50 [10]: 0.623 µM
- TGI [10]: > 100 µM

SMILES: CC1CC(C)CC(C)C(O)/C(C#N)=C/C=C/CC(C2CCCC2C(=O)O)OC(=O)CC(O)C(C)C1 (centres undefined)
- GI50 [1]: 0.0263 µM and < 0.0121 µM
- TGI [1]: 0.066 µM and 0.256 µM
- GI50 [2]: 0.00363 µM
- TGI [2]: 0.0304 µM and 0.0273 µM
- GI50 [3]: 0.027 µM
- TGI [3]: 0.15 µM and 0.0217 µM
- GI50 [4]: 0.132 µM
- TGI [4]: 0.659 µM and 0.896 µM
- GI50 [5]: 0.0176 µM
- TGI [5]: 0.0736 µM and 0.0813 µM
- GI50 [6]: 0.0358 µM and 0.0178 µM
- TGI [6]: 0.199 µM and 0.0879 µM
- GI50 [7]: 0.00139 µM
- TGI [7]: 0.00545 µM
- GI50 [8]: 0.0495 µM
- TGI [8]: 0.472 µM and 0.344 µM
- GI50 [9]: 0.0166 µM
- TGI [9]: 0.254 µM and 0.221 µM
- TGI [10]: 0.0513 µM and 0.0143 µM

SMILES: CC(C)=CCN1c2ccccc2NC(=O)CC1C (centres undefined)
- TGI [1]: > 100 µM
- TGI [2]: > 100 µM
- TGI [3]: > 100 µM
- TGI [4]: > 100 µM
- TGI [5]: > 100 µM
- TGI [6]: > 100 µM
- TGI [7]: > 100 µM
- TGI [8]: > 100 µM
- TGI [9]: > 100 µM
- TGI [10]: > 100 µM

SMILES: CCOc1ccccc1CCN=C1NC(=O)/C(=C/c2ccc3ncccc3c2)S1
- GI50 [1]: 0.84 µM
- TGI [1]: 19.8 µM
- GI50 [2]: 1.31 µM
- TGI [2]: 10.5 µM
- GI50 [3]: 1.31 µM
- TGI [3]: 15.9 µM
- GI50 [4]: 1.2 µM
- TGI [4]: > 16.2 µM
- GI50 [5]: 0.146 µM
- TGI [5]: 3.04 µM
- GI50 [6]: 0.772 µM
- TGI [6]: 2.29 µM
- GI50 [7]: 4.64 µM
- TGI [7]: 11.5 µM
- GI50 [8]: 3.08 µM
- TGI [8]: > 25 µM
- GI50 [9]: 0.75 µM
- TGI [9]: > 7.13 µM
- GI50 [10]: 3.28 µM
- TGI [10]: 14.6 µM
